# Results from patent US20110117009A1, “DRUG CONJUGATES WITH POLYGLYCEROLS” (FREIE UNIVERSITÄT BERLIN, priority 2008, published 2011).
# pIC50: −log10 of the molar value. Marks after values point to notes of the source that are not given here.
# Tests used:
# [1] = Tolerability (mortality, body weight change) in the A2780 xenograft study; type: in vivo, female NMRI: nu/nu mice; conditions: i.v. weekly, doxorubicin 2×8 mg/kg, conjugates 3×24 mg/kg doxorubicin equivalents
# Procedure: In vivo efficacy studies were carried out with compounds 1-A, 1-B, and 1-C and doxorubicin in the ovarian carcinoma A2780 xenograft model. For the in vivo testing, female NMRI: nu/nu mice (Taconic, Denmark) were used. The mice were held in individually ventilaged cages (IVC) under sterile and standardized environmental conditions (25±2° C. room temperature, 50±10% relative humidity, 12 hour light-dark-rhythm). They received autoclaved food and bedding (ssniff, Soest, Germany) and acidified (pH 4.0) drinking water ad libitum. A2780 tumor fragments were transplanted subcutaneously (s.c.) into the left flank region of anaesthetized (40 mg/kg i.p. Radenarkon, Asta Medica, Frankfurt, Germany) mice on day zero. […]
# Tumor size was measured twice weekly with a caliper-like instrument in two dimensions. Individual tumor volumes (V) were calculated by the formula V=(length×[width]^2)/2 and related to the values on the first day of treatment (relative tumor volume, RTV). […] The body weight of mice was determined every 3 to 4 days.
# The standard and maximum tolerated dose of doxorubicin (2×8 mg/kg) was compared to compounds 1-A, 1-B, and 1-C at 3×24 mg/kg (doxorubicin equivalents). […] J. Drug Targeting, 8: 305-318, 2000; Trail et al.: Antigen-specific activity of carcinoma-reactive BR64-doxorubicin conjugates evaluated in vitro and in human tumor xenograft models. […]
# [2] = test system: human ovarian cancer xenografts (A2780); test: In vivo efficacy in the ovarian carcinoma A2780 xenograft model; parameters: species or system female NMRI: nu/nu mice; conditions: doxorubicin 2×8 mg/kg, conjugates 3×24 mg/kg doxorubicin equivalents
# Procedure: The mice were held in individually ventilaged cages (IVC) under sterile and standardized environmental conditions (25±2° C. room temperature, 50±10% relative humidity, 12 hour light-dark-rhythm). They received autoclaved food and bedding (ssniff, Soest, Germany) and acidified (pH 4.0) drinking water ad libitum. […] Mice were randomly distributed to the experimental groups (8 mice per group). When the tumors were grown to a palpable size, treatment was initiated.
# Tumor size was measured twice weekly with a caliper-like instrument in two dimensions. Individual tumor volumes (V) were calculated by the formula V=(length×[width]^2)/2 and related to the values on the first day of treatment (relative tumor volume, RTV). Statistical analysis was performed with the U-test (Mann and Whitney) with p<0.05. The body weight of mice was determined every 3 to 4 days.
# AsPC1 LN = test: Cytotoxicity, luciferase readout after 72 h; type: cell-based; conditions: Homo sapiens
# Procedure: After 72 h cells were lysed in 100 μL of luciferase assay buffer, and an aliquot of the lysate was assayed for luciferase activity.
# [3] = nude mice models, e.g. 2×12 mg/kg; cited from earlier work
smiles,measurement,setting,value
"COc1cccc2c1C(=O)c1c(O)c3c(c(O)c1C2=O)C[C@@](O)(C(=O)CO)C[C@@H]3O[C@H]1C[C@H](N)[C@H](O)[C@H](C)O1 [Doxorubicin, doxorubicin]",toxic death,[1]; 8 mice per group,0
same,BWC (body weight change),[1]; day in brackets,−21 (d26) %
same,antitumor efficacy (in words),[2]; A2780 xenografts,moderate antitumor efficacy
same,optimum T/C RTV,"[2]; i.v. weekly, relative tumor volume treated versus control",15* %
same,pIC50,AsPC1 LN,6.44
same,toxicity at higher doses,[3],unacceptable toxicity and mortality
